Data taken from patent publication US6426222B1, “Method for inducing osteoblast differentiation of human extramedullary adipose tissue cells” (Bio Holdings International Limited, priority 1997, dated 2002).
pIC50: −log10 of the molar value.

Columns and labels:
[1] = target: placenta type alkaline phosphatase (Homo sapiens, UniProt P05187); settings: read-out: levamisole concentration for 50% inhibition of activity, placenta type alkaline phosphatase; cited from earlier work
[2] = target: intestine type alkaline phosphatase (Homo sapiens, UniProt P09923); settings: read-out: levamisole concentration for 50% inhibition of activity, intestine type alkaline phosphatase; cited from earlier work
[3] = tested on: human extramedullary adipose tissue cells; experiment: Alkaline phosphatase activity of treated cultures (para-nitrophenol phosphate substrate); format: cell-based; settings: dexamethasone 10^-7 M
Protocol: Adipose tissue biopsies were taken during plastic surgery of the abdomen on healthy patients, of ages of from 25 to 50.
The tissues taken were sliced thinly into small fragments and digested for 90 minutes with collagenase (2 mg/ml) in a Krebs Ringer buffer at 37° C. Filtering was performed on a screen having a pore size of 100 μm, the filtrate was recovered, and centrifuged at 1000 revolutions per minute (rpm) for 5 min. The supernatant was removed and the pellet was washed several times in Krebs Ringer buffer. The washing and centrifuging steps were repeated several times and on each occasion the supernatant containing mature adipocytes was removed. The resulting cells were suspended in DME/F12 (Sigma Chemical Co., St. Louis, Mo. USA; reference D-6905) culture medium containing 10% fetal calf serum, 100 μg/ml streptomycin, and 100 U/ml penicillin.
Polystyrene culture dishes (“tissue culture flasks” sold by Becton-Dickinson under the references 3013, 3028, and 3084) were inoculated with the resulting cell suspension and incubation was performed at 37° C. under an atmosphere of moist air with 5% additional CO2. […]
The quantity of para-nitrophenol formed upon hydrolysis of the substrate was determined by measuring the absorbance at 410 nm, which was converted into nanomoles of enzyme using a calibration curve established on the basis of known concentrations of para-nitrophenol.

intestine type alkaline phosphatase, sequence (P09923 20-503 limits assumed): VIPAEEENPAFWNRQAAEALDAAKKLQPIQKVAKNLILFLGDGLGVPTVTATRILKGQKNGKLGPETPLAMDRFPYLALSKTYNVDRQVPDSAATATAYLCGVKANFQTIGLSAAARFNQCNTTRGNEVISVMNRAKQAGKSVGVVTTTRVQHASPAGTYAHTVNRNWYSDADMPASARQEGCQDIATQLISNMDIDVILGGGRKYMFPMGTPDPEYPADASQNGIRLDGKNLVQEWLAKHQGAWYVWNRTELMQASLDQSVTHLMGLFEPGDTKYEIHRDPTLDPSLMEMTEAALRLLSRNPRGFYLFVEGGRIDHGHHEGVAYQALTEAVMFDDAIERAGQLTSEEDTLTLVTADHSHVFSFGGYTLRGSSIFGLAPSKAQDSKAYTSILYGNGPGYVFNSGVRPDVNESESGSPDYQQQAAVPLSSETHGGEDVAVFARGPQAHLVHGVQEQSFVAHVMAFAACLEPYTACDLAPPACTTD
placenta type alkaline phosphatase, sequence (P05187 23-506 limits assumed): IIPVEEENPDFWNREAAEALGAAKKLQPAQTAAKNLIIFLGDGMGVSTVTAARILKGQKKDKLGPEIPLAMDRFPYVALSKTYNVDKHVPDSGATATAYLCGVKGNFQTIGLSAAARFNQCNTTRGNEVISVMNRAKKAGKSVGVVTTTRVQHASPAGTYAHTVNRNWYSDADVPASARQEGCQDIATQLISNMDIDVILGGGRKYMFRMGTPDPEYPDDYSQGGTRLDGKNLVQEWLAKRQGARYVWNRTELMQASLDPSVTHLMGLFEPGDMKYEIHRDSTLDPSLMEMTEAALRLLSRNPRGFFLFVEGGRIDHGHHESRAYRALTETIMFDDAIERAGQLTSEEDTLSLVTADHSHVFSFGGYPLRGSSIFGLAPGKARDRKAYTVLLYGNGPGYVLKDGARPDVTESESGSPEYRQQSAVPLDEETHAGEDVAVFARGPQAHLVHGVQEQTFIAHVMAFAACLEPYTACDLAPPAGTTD

Row | Compound | pIC50 [1] | pIC50 [2] | alkaline phosphatase activity, observed in nearly all cases [3] | alkaline phosphatase activity, sometimes as high as [3] [nanomoles/30 min/well]
1 | c1ccc([C@H]2CN3CCSC3=N2)cc1 [levamisole] | ~3.00 | ~2.52 |  | 
2 | C[C@@H]1C[C@H]2[C@@H]3CCC4=CC(=O)C=C[C@]4(C)[C@@]3(F)[C@@H](O)C[C@]2(C)[C@@]1(O)C(=O)CO [dexamethasone] |  |  | not less than 200 nanomoles of para-nitrophenol/30 min/well | ≤ 700
